Experimental data reported in patent publication US10537607B2, “Treatment of autoimmune and/or inflammatory disease using novel caveolin modulators” (E&B TECHNOLOGIES LLC, priority 2013, dated 2020).
“Also recorded” adds a separate entry of the source.

Tests used:
[1] = system: VEGF-induced NO release (eNOS activity) in BAEC; assay: VEGF-induced NO release in cultured BAEC; format: cell-based, bovine; details: for effect on VEGF-induced NO release (in words) / inhibition of VEGF-induced NO release: 6 h pretreatment; for effect on basal (unstimulated) NO release: six-hour pretreatment, NO-specific chemiluminescence
Experimental: VEGF-induced NO release experiments were performed as previously described.
[…] Media was removed and fresh serum-free DMEM was added, with or without VEGF (10^−9 M) for 30 minutes. Media was collected, cells were trypsinized and counted, and nitrites levels in the supernatant were determined by using a Sievers NO chemiluminescence analyzer.

[2] = system: mustard oil-induced vascular permeability; format: in vivo, mouse; details: mice, one-hour pretreatment, AP-Cav 1 mg/kg or same molar dose, vs carrier peptide alone, 30 min
Experimental: Plasma leakage in mouse skin was studied using the Miles assay as previously described. Briefly, male Swiss mice (30-35 g) were anesthetized and injected with Evans blue (30 mg/kg in PBS; Sigma). […] (5% in mineral oil), an analog of mustard oil (Pierce, Rockford, Ill.) was applied on the right ear with a cotton tip. The left ear was used as a control and was treated with mineral oil alone. After 30 minutes, the anesthetized animals were sacrificed, perfused, ears were removed, dried and weighed. Evans blue was extracted from the ears with formamide and quantified spectrophotometrically at 595 nm.

[3] = system: dextran sulfate sodium colitis; assay: Dextran sulfate sodium model of inflammatory bowel disease; format: in vivo, mouse; details: C57B1/6 mice, DSS 2% in drinking water, 2.5 mg/kg i.p. daily from day 1
Experimental: C57B1/6 mice are fed dextran sulfate sodium 2% in the drinking water for 9 days. Body weights are measured daily. At the end of 9 days, mice are sacrificed and the first distal centimeter of the colon subject to histopathological analysis. Sections are scored according to the scoring system described in Jirkof et al., Burrowing is a sensitive behavioral assay for monitoring general wellbeing during dextran sulfate sodium colitis in laboratory mice. Laboratory animals. 2013, 47(4):274-83. doi: 10.1177/0023677213493409. PubMed PMID:23828853.

multiple sclerosis = assay: Treatment of patients diagnosed with multiple sclerosis; format: in vivo, human; details: 80 mg per day by subcutaneous injection
Experimental: Patients diagnosed with MS, including relapsing remitting and primary progressive types, are treated with Endo-5 CavAB (SEQ ID NO.1/SEQ ID NO. 6) (or other caveolin analog) at 80 mg per day by subcutaneous injection. […] The changes in the patient receiving the treatment are measured using the Multiple Sclerosis Functional Composite. See, e.g., the website of the National MS Society: Clinical Study Measures.

HUVEC = assay: CPP imaging of live HUVEC (pulse/chase epifluorescence microscopy); format: cell-based, human; details: for intracellular staining after pulse: carboxyfluorescein-Endo5 and rhodamine-AP, 10^−6M, 1 h at 37° C.; for intracellular staining after chase: two-hour chase in absence of CPP
Experimental: Freshly isolated HUVEC were grown in M199 media supplemented with glutamine, 10% FBS and endothelial cell growth supplement on Petri dishes with glass bottom. Since CPPs bind non-specifically to glass, the background fluorescence was reduced by pretreating glass-bottom Petri dishes with a blocking solution containing unlabelled AP and Endo5 for 30 minutes (5×10^−5 M) in colorless M199 media with 1% FBS.
After cell seeding, media was removed and carboxyfluorescin-labeled Endo5 and Rhodamine-labeled AP were added to cells (10^−5M) and cells were incubated at 37° C. and 5% CO2 for 1 hour (pulse). Media was removed, cells were rinsed once with warm culture media and peptide uptake was rapidly visualized on a Zess Axiovert inverted fluorescence microscope by performing a Z-stack of captured images followed by volume deconvolution (Openlab software). The new media was left on cells for an additional 2 hours (total 3 hours) to chase CPP localization, and cells were visualized again (chase).
In the present study, epifluorescence microscopy experiments were performed in live HUVEC to compare the uptake mechanism of Endo5 to AP. After blocking glass bottom Petri dishes with unlabeled AP and Endo5 to minimize non-specific binding of labeled peptides, freshly isolated HUVEC were grown to 50% confluent and labeled with a “pulse” of carboxyfluorescein-Endo5 and rhodamine-AP (10^−6M) for 1 h, rinsed, followed by a two-hour “chase” for a total of 3 hours.

BAEC = assay: Quantification of internalization of fluorophore-labelled peptides; format: cell-based, bovine; details: cultured endothelial cells
Experimental: Cultured BAEC were grown in 6-well plates until confluence was reached. Cells were washed and incubated in 1 mL of DMEM containing labeled peptides (10^−6 M) for 1, 2, 4 or 6 hours at 37° C., washed three times with cold PBS containing 0.1 M glycine (pH 4) to remove non-specific surface staining.
After complete media removal, cells were trypsinized, centrifuged and proteins were extracted by adding 150 μL of SDS-based or Triton X-100 lysis buffer. Membranes were removed by centrifugation, and internalized peptides were quantified by using a fluorescence plate reader (Perseptive Biosystems).
Cells incubated with peptides for 5 minutes and washed as described were used as basal surface staining. Linearity of both fluorophores used was determined by performing a concentration-fluorescence curve using lysis solution. Experiments with each fluorophore were performed individually to prevent cross-interference.

traumatic brain injury = assay: Traumatic brain injury, controlled cortical impact model; format: in vivo, rat; details: rats
From the text: Sprague Dawley rats (10 week old) are anesthetized using 1-2% isoflurane and fixed in a stereotactic frame. The skull is surgically exposed and a craniectomy 2.5 mm in radius is made centered on coordinates −0.2 mm anterior and +0.2 mm lateral to midlineat the fronto-parietal cortex. A controlled cortical impactor (Pittsburgh Precision Instruments, Inc., Pittsburgh, Pa.) is used to deliver an impact using a velocity of 6.0 m/s and depth of 1.0 mm below the dura mater and duration of impact of 150 ms. The impactor is angled to impact the skull perpendicular to the brain at the point of impact. Animals are maintained at normal body temperature throughout the procedure. Following the impact, the incision is sutured and the animals are allowed to recover.
Neurological deficits are scored using the system of Clark assessed 24 and 48 hours post injury. See, Clark W et al., Citicoline treatment for experimental intracerebral hemorrhage in mice. Stroke; a journal of cerebral circulation. 1998; 29(10):2136-40. PubMed PMID: 9756595.
At 48 hours post TBI, rats are sacrificed and the brains sectioned and tissue processed for immunohistochemistry. […] See, Glushakov et al., Prostaglandin F2alpha FP receptor antagonist improves outcomes after experimental traumatic brain injury, Journal of neuroinflammation. 2013; 10(1):132. doi: 10.1186/1742-2094-10-132. PubMed PMID:24172576.

[4] = system: experimental autoimmune encephalitis; details: experimental model of autoimmune encephalitis; cited from earlier work
[5] = BAEC, peptide 10^−5 M, VEGF 10^−9 M 30 min

Substance: Endo5 (RRPPR) with cargo DGIWKASFTTFTVTKYWFYR, caveolin-1 amino acids 82-101, fused to its C-terminus (RRPPRDGIWKASFTTFTVTKYWFYR; listed as Homo sapiens) [Endo5-Cav]
- eNOS inhibition (VEGF-induced NO release), in words ([1]; BAEC, 10^−5 M, 4 hours pretreatment): complete eNOS inhibition
- inhibition of VEGF-induced NO release after pretreatment with AP ([1]; BAEC, Endo5-Cav 10^−5 M 6 h, AP 5×10^−5 M pretreatment): 30%
- inhibition of VEGF-induced NO release after pretreatment with Endo5 ([1]; BAEC, Endo5-Cav 10^−5 M 6 h, Endo5 5×10^−5 M pretreatment): 13%
- fate of the inhibition of VEGF-induced NO release after pretreatment with either AP or Endo5 ([1]; BAEC, construct 10^−5 M 6 h, AP or Endo5 5×10^−5 M): partially prevented
- effect on VEGF-induced NO release (in words) [1, 5]: completely impaired; also recorded: near-maximum effect; also recorded: completely blocked
- inhibition of VEGF-induced NO release [1, 5]: 91%
- effect on basal (unstimulated) NO release ([1]; BAEC, 10^−5 M): no significant effect
- rate of uptake relative to AP-Cav ([1]; inferred from 2 h Endo5-Cav vs 6 h AP-Cav pretreatment, 10^−5 M): approximately three times
- inhibition of mustard oil-induced vascular leakage [2]: 58%

Substance: Endo5-CavAB: 19-mer: Endo5 fused to Cav AB domain (amino acids 82-95 of human caveolin-1); second generation cavtratin (RRPPRDGIWKASFTTFTVT; listed as Homo sapiens)
- inhibition of VEGF-induced NO release ([1]; BAEC, peptide 2×10^−6 M): 49%
- effect on VEGF-induced NO release (in words) [1, 5]: completely blocked
- histopathologic score of the colon [3]: improve the histopathologic sore
- weight loss at 9 days [3]: reduce the weight loss
- symptoms of MS (motor function, gait) (multiple sclerosis): improves the symptoms of MS

Substance: RQIKIWFQNRRMKWKK (listed as Rattus norvegicus) [AP, 16-mer Antennapedia cell-permeable peptide, reference compound]
- effect on VEGF-induced NO release (in words) [1, 5]: no significant effect
- effect on basal (unstimulated) NO release ([1]; BAEC, 10^−5 M): no significant effect
- intracellular staining after pulse (HUVEC): diffuse punctate cytoplasmic staining
- intracellular staining after chase (HUVEC): more concentrated rather than diffuse pattern

Substance: RRPPR [Endo5, five-amino acid cell-permeable transport peptide]
- effect on VEGF-induced NO release (in words) [1, 5]: no significant effect
- effect on basal (unstimulated) NO release ([1]; BAEC, 10^−5 M): no significant effect
- rate of uptake / internalization relative to AP (BAEC): three times greater
- intracellular staining after pulse (HUVEC): diffuse punctate cytoplasmic staining
- intracellular staining after chase (HUVEC): more concentrated rather than diffuse pattern

Substance: cavtratin: caveolin mimetic, a fusion peptide of a cell penetrating peptide to the caveolin scaffolding domain; first generation (RQIKIWFQNRRMKWKKDGIWKASFTTFTVTKYWFYR)
- neurological deficits (Clark score) (traumatic brain injury; 2.5 mg/kg i.p. immediately after TBI and at 24 hours, scored 24 and 48 hours post injury): reduces the observed neurological deficits
- GFAP expression in the lesion penumbra (traumatic brain injury; 2.5 mg/kg i.p., 48 hours post TBI): reduces GFAP expression
- histopathologic score of the colon [3]: improve the histopathologic sore
- weight loss at 9 days [3]: reduce the weight loss
- blood brain barrier disruption [4]: inhibited
- clinical score / functional deficits [4]: improve; also recorded: ameliorates
- edema [4]: block
- inflammatory cell (CD45+) invasion into the brain parenchyma [4]: block; also recorded: inhibited
